In data set [1] the target is T1, hyaluronic acid-degrading enzyme (derived from bovine testicles, Type IV-S) (Bos taurus, UniProt Q2YDK3).
T1 construct: derived from bovine testicles manufactured by Sigma Corporation, Type IV-S; purchased Sigma Corporation Type IV-S; host or cells: bovine testicles
T1 sequence (Q2YDK3 36-553): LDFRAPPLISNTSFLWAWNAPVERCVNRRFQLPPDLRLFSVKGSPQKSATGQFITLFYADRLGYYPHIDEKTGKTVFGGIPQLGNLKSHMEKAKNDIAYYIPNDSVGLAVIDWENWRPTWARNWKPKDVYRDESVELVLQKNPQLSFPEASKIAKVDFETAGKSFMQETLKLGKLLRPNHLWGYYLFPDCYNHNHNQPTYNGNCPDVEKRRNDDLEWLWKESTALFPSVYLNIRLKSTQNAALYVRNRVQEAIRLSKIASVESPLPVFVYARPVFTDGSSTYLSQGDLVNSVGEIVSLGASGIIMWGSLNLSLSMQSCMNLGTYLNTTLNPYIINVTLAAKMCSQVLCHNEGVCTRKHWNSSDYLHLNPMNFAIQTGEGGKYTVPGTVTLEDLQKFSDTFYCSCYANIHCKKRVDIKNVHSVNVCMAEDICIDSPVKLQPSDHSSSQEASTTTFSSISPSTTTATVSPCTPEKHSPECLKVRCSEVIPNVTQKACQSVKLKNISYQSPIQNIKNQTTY
Briefly: Hyaluronic acid-degrading enzyme activity inhibition test. The format is biochemical. As for the experimental part:
Using the compound 7 obtained in Example 2, the compound 34, and magnesium ascorbate phosphate as a comparative control, a hyaluronic acid-degrading enzyme activity inhibition test was carried out.
(§1) First, the following solutions shown in A to H were each prepared. • A: 0.1M acetate buffer solution was prepared by dissolving 0.60 g of acetic acid in 100 ml of distilled water. • B: A hyaluronidase solution was prepared by dissolving 7.2 mg of a hyaluronic acid-degrading enzyme (derived from bovine testicles manufactured by Sigma Corporation, Type IV-S) into 3.0 ml of the acetate buffer (prepared in the above A). • C: An activator solution was prepared by dissolving 1.0 mg of compound 48/80 (a hyaluronidase activator manufactured by Sigma Corporation) into 10.0 ml of the acetate buffer (prepared in the above A). • D: A hyaluronic acid solution was prepared by dissolving 12.0 mg of potassium hyaluronate (manufactured by Wako Pure Chemical Industries, Ltd.) into 15.0 ml of the acetate buffer (prepared in the above A). • E: A 0.4N sodium hydroxide aqueous solution was prepared by dissolving 1.60 g of sodium hydroxide into 100 ml of distilled water. • F: After 4.95 g of boric acid was dissolved into 50 ml of distilled water, a 1N sodium hydroxide aqueous solution was added until pH reached 9.1. Subsequently, the whole amount was made 100 ml by adding distilled water. • G: 1.0 g of p-dimethylaminobenzaldehyde, 1.25 ml of 10N hydrochloric acid, and 8.75 ml of acetic acid were mixed. The solution was used after the whole amount was made 100 ml by adding acetic acid immediately before use. • H: Each test compound was dissolved in the acetate buffer (prepared in the above A) so the final test concentration became 0.5 mg/ml and 1.0 mg/ml.
Next, the experimental operation was carried out with the procedures shown in the following (1) to (8).
(1) 0.2 ml of the test compound solution (prepared in the above H) and 0.1 ml of the hyaluronic acid-degrading enzyme solution (prepared in the B) were mixed and the whole was incubated at 37° C. for 20 minutes.
(2) To the above reaction solution was added 0.2 ml of the activator solution (prepared in the above C) and the whole was incubated at 37° C. for 20 minutes.
(3) To the above reaction solution was added 0.5 ml of the hyaluronic acid solution (prepared in the above D), and the whole was incubated at 37° C. for 40 minutes.
(4) To the above reaction solution was added 0.2 ml of the 0.4N sodium hydroxide aqueous solution (prepared in the above E), and the whole was cooled in an ice bath.
(5) To the above reaction solution was added 0.2 ml of the boric acid solution (prepared in the above F), and the whole was heated at 100° C. for 3 minutes.
(6) The above reaction solution was cooled in an ice bath.
(7) To the above reaction solution was added 3.0 ml of the p-dimethylaminobenzaldehyde solution (prepared in the above G), and the whole was incubated at 37° C. for 20 minutes.
(8) Absorbance of the reaction solution at 585 nm was measured using a spectrophotometer.
The above experimental operations were repeated three times, and the resulting numeric value was inserted in the following calculation formula and a mean value thereof was regarded as a hyaluronic acid-degrading enzyme activity inhibition ratio (%). Hyaluronic acid-degrading enzyme activity inhibition ratio (%)=(A−B)/A×100
A=absorbance obtained at the time when operation was carried out with addition of no test compound
B=absorbance obtained at the time when operation was carried out with addition of test compound
The compounds of the invention and magnesium ascorbate phosphate were each used in an enzymatic reaction solution in amounts of 0.1 mg/ml, 0.2 mg/ml, and 0.4 mg/ml, and the results were shown in Table 7 (since the compound 7 was not dissolved in a concentration of 0.4 mg/ml, the test was not carried out).

A short description of data set [2]: Dissolution of test compound for the hyaluronic acid-degrading enzyme test. Format: physicochemical. The note with it: concentration of 0.4 mg/ml, acetate buffer. As for the experimental part: as §1, with “The solution was used after the whole amount was made 100 ml by adding acetic acid immediately before use. • H: Each test compound was dissolved in the acetate buffer (prepared in the above A) so the final test concentration became 0.5 mg/ml and 1.0 mg/ml.” left out

In the next data set the test system is mushroom tyrosinase. Description: Tyrosinase activity inhibition test using L-dopa as substrate (Test Examples 1 and 2, absorbance at 475 nm). Format: biochemical. The note with it: Table 1. As for the experimental part:
Using the compound 7 obtained in Example 2, the compound 13 obtained in Example 5, a mixture of the compound 18 and the compound 19 (existing molar ratio 45:55) obtained in Example 7, and arbutin (manufactured by Tokyo Kasei Kogyo Co., Ltd.) as a comparative control, a tyrosinase activity inhibition test was carried out using L-dopa as a substrate.
The specific test procedures are as follows. • (1) 1.80 ml of a phosphate buffer prepared by dissolving 1.000 g of sodium dihydrogen phosphate and 1.186 g of disodium hydrogen phosphate in 500 ml of distilled water, 1.00 ml of a substrate solution prepared by dissolving 32.7 mg of L-DOPA in 200 ml of distilled water, and 0.10 ml of a test solution prepared by dissolving the test compound in dimethyl sulfoxide were mixed together. • (2) 0.10 ml of an enzyme solution prepared by dissolving 3.0 mg (2400 units; manufactured by Sigma Corporation) of mushroom tyrosinase in 7.0 ml of distilled water was added to the solution prepared in (1), and the whole was stirred for 15 seconds. The resulting solution was maintained at 25° C., and the absorbance at 475 nm was measured one minute and 45 seconds later and 2 minutes and 45 seconds later. • (3) The test operations in the above (1) and (2) were conducted three times for the individual test compounds and blank test (only dimethyl sulfoxide), and the resulting numeric value was inserted in the following calculation formula and a mean value thereof was regarded as a tyrosinase activity inhibition ratio (%). Tyrosinase activity inhibition ratio (%)=[(T^1−T^2)/T^1]×100 • T^1=difference in absorbance of solution with addition of no test compound between 2 minutes and 45 seconds later and one minute and 45 seconds later • T^2=difference in absorbance of solution with addition of test compound was added between 2 minutes and 45 seconds later and one minute and 45 seconds later
Using the compound 40 obtained in Example 24 and arbutin (manufactured by Tokyo Kasei Kogyo Co., Ltd.) as a comparative control, a tyrosinase activity inhibition test was carried out using L-dopa as a substrate. The test procedure was in accordance with Test Example 1.

The nature of data set [3]: Test of scavenging DPPH radical (Test Example 8, 517 nm). The note with it: final concentration of 10 μg/mL; 20 minutes, room temperature. As for the experimental part:
Using the compound 7 obtained in Example 2 as well as dl-α-tocopherol (manufactured by Tokyo Kasei Kogyo Co., Ltd.) and butylhydroxytoluene (BHT) as comparative controls, a test of scavenging DDPH (1,1-diphenyl-2-picrylhydrazyl) radical, a stable radical, was carried out.
1 ml of 200 μM DPPH ethanol solution was added to 800 μl of 100 mM Tris-HCl buffer (pH 7.4) and 200 μl of an ethanol solution of the compound 7 (a final concentration of 10 μg/mL), followed by sufficient stirring. After the resulting mixture was allowed to stand in a dark place at room temperature for 20 minutes, the absorbance at 517 nm was measured (absorbance of the test solution)
The compound 13 of the invention as well as dl-α-tocopherol and butylhydroxytoluene as a known radical scavenger were similarly tested.
As a control, 800 μl of 100 mM Tris-HCl buffer (pH 7.4), 200 μl of ethanol, and 1 ml of 200 μM DPPH ethanol solution were used in the same manner as described above and the absorbance was measured (absorbance of the control solution).
With the individual compounds, the same measurement was repeated three times, and the mean value was inserted in the following formula to calculate a DPPH radical-scavenging ratio (%). DPPH radical-scavenging ratio (%)=[1−(absorbance of sample solution/absorbance of control solution)]×100
For orientation: DPPH is a stable violet radical that fades when it is reduced.

On to `COc1cc(CCC(=O)/C=C/CCCCCCC(=O)O)ccc1O` [Compound 7], for which the figures for the “Hyaluronic acid-degrading enzyme activity inhibition ratio (%)” value in data set [1] (0.1 mg/mL) and in data set [1] (0.2 mg/mL) were 10.6% and 41.3%, respectively. Besides, the “Solubility in the test solution” value in data set [2] was “not dissolved”. The entries for the “Tyrosinase activity inhibition ratio (%)” value in the data set with mushroom tyrosinase (0.5 mg/mL in enzymatic reaction solution) and with mushroom tyrosinase (1 mg/mL in enzymatic reaction solution) were 59.8% and 77.1%, respectively. Moreover, the “DPPH radical-scavenging ratio (%)” value in data set [3] worked out at 33.7%.

Values taken from patent US7355063B2, “Shogaol compound and tyrosinase activity inhibitor comprising the compound” (Toagosei Co., Ltd., priority 2003, dated 2008).
